Among the data in patent publication US11377441B2, “Covalent inhibitors of KRAS” (Araxes Pharma LLC, priority 2017, dated 2022) are Binding % values, retold here.

Molecules are shown by their SMILES.

The target of this test is T1, KRAS G12C 1-169, his-tagged protein, GDP-loaded (Homo sapiens, UniProt P01116, G12C).
T1 construct: KRAS G12C 1-169, his-tagged protein, GDP-loaded
The test is described as follows: Biochemical assay: covalent modification of KRAS G12C measured by mass spectrometry (RapidFire/TOF or Q-Exactive). The format is binding. Particulars: covalent binding to (modification of) KRAS G12C after a ten minute incubation period. In short, it runs like this: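 GDP-loaded KRAS G12C 1-169 (his-tagged) at 2 μM or 0.5 μM in 20 mM Hepes, 150 mM NaCl, 1 mM MgCl2, incubated with compound at 100, 30 or 10 μM at room temperature for 10 min, 30 min, 2 h or 24 h, then quenched with formic acid. Intact-protein LC-MS, deconvolved; percent modification from modified versus unmodified protein.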

Regarding `C=CC(=O)N1C[C@H](C)N(c2nc(OC3CCOC3)nc3c(F)c(-c4c(C)ccc5cnn(C)c45)c(Cl)cc23)C[C@H]1C` (stereo partly drawn) [Compound 216, 1-((2R,5S)-4-(6-chloro-7-(1,6-dimethyl-1H-indazol-7-yl)-8-fluoro-2-(tetrahydrofuran-3-yloxy)quinazolin-4-yl)-2,5-dimethylpiperazin-1-yl)prop-2-en-1-one], the Binding % result is “++ (++ indicates binding activity from 50 to 80%)”. Then `C=CC(=O)N1C[C@H](C)N(c2nc(OC3CCCOC3)nc3c(F)c(-c4c(C)ccc5cnn(C)c45)c(Cl)cc23)C[C@H]1C` (stereo partly drawn) [Compound 225, 1-((2R,5S)-4-(6-chloro-7-(1,6-dimethyl-1H-indazol-7-yl)-8-fluoro-2-(tetrahydro-2H-pyran-3-yloxy)quinazolin-4-yl)-2,5-dimethylpiperazin-1-yl)prop-2-en-1-one], with “++ (++ indicates binding activity from 50 to 80%)”; and `C=CC(=O)N1C[C@H](C)N(c2nc(OCC(C)(C)N(C)C)nc3c(F)c(-c4c(C)ccc5[nH]nc(C)c45)c(Cl)cc23)C[C@H]1C` [Compound 226, 1-((2R,5S)-4-(6-chloro-7-(3,5-dimethyl-1H-indazol-4-yl)-2-(2-(dimethylamino)-2-methylpropoxy)-8-fluoroquinazolin-4-yl)-2,5-dimethylpiperazin-1-yl)prop-2-en-1-one], with “++ (++ indicates binding activity from 50 to 80%)”; and `C=CC(=O)N1C[C@H](C)N(c2nc(N3CC(N(C)C)C3)nc3c(F)c(-c4c(F)ccc5ccn(C)c45)c(Cl)cc23)C[C@H]1C` [Compound 229, 1-((2R,5S)-4-(6-chloro-2-(3-(dimethylamino)azetidin-1-yl)-8-fluoro-7-(6-fluoro-1-methyl-1H-indol-7-yl)quinazolin-4-yl)-2,5-dimethylpiperazin-1-yl)prop-2-en-1-one], with “+++ (+++ indicates binding activity greater than 80%)”.

Regarding `C=CC(=O)N1C[C@H](C)N(c2nc(O[C@H](C)CN(C)C)nc3c(F)c(-c4c(C)ccc5cnn(C)c45)c(Cl)cc23)C[C@H]1C` [Compound 230, 1-((2R,5S)-4-(6-chloro-7-(1,6-dimethyl-1H-indazol-7-yl)-2-((R)-1-(dimethylamino)propan-2-yloxy)-8-fluoroquinazolin-4-yl)-2,5-dimethylpiperazin-1-yl)prop-2-en-1-one], the Binding % entry is recorded as “++ (++ indicates binding activity from 50 to 80%)”. As to `C=CC(=O)N1C[C@H](C)N(c2nc(O[C@H](C)CN(C)C)nc3c(F)c(-c4c(C)ccc5[nH]nc(C6CC6)c45)c(Cl)cc23)C[C@H]1C` [Compound 231, 1-((2R,5S)-4-(6-chloro-7-(3-cyclopropyl-5-methyl-1H-indazol-4-yl)-2-((R)-1-(dimethylamino)propan-2-yloxy)-8-fluoroquinazolin-4-yl)-2,5-dimethylpiperazin-1-yl)prop-2-en-1-one], the Binding % result was “++ (++ indicates binding activity from 50 to 80%)”. Regarding `C=CC(=O)N1C[C@H](C)N(c2nc(O[C@H](C)CN(C)C)nc3c(F)c(-c4c(C)ccc5[nH]nc(C)c45)c(Cl)cc23)C[C@H]1C` [Compound 232, 1-((2R,5S)-4-(6-chloro-7-(3,5-dimethyl-1H-indazol-4-yl)-2-((R)-1-(dimethylamino)propan-2-yloxy)-8-fluoroquinazolin-4-yl)-2,5-dimethylpiperazin-1-yl)prop-2-en-1-one], the Binding % result is reported as “++ (++ indicates binding activity from 50 to 80%)”.

Regarding `C=CC(=O)N1C[C@H](C)N(c2nc(C#CCN(C)C)nc3c(F)c(-c4c(C)ccc5cnn(C)c45)c(Cl)cc23)C[C@H]1C` [Compound 233, 1-((2R,5S)-4-(6-chloro-7-(1,6-dimethyl-1H-indazol-7-yl)-2-(3-(dimethylamino)prop-1-ynyl)-8-fluoroquinazolin-4-yl)-2,5-dimethylpiperazin-1-yl)prop-2-en-1-one], the Binding % result was “+++ (+++ indicates binding activity greater than 80%)”. With `C=CC(=O)N1C[C@H](C)N(c2nc(OC[C@@H]3CCCN3C(C)C)nc3c(F)c(-c4c(C)ccc5[nH]nc(C6CC6)c45)c(Cl)cc23)C[C@H]1C` [Compound 237, 1-((2R,5S)-4-(6-chloro-7-(3-cyclopropyl-5-methyl-1H-indazol-4-yl)-8-fluoro-2-(((S)-1-isopropylpyrrolidin-2-yl)methoxy)quinazolin-4-yl)-2,5-dimethylpiperazin-1-yl)prop-2-en-1-one], the Binding % entry is given as “++ (++ indicates binding activity from 50 to 80%)”. In the case of `C=CC(=O)N1C[C@H](C)N(c2nc(OC[C@@H]3CCCN3C(C)C)nc3c(F)c(-c4c(C)ccc5cnn(C)c45)c(Cl)cc23)C[C@H]1C` [Compound 238, 1-((2R,5S)-4-(6-chloro-7-(1,6-dimethyl-1H-indazol-7-yl)-8-fluoro-2-(((S)-1-isopropylpyrrolidin-2-yl)methoxy)quinazolin-4-yl)-2,5-dimethylpiperazin-1-yl)prop-2-en-1-one], the Binding % entry is “++ (++ indicates binding activity from 50 to 80%)”. The value for `C=CC(=O)N1C[C@H](C)N(c2nc(OC[C@@H]3CCCN3CC3CC3)nc3c(F)c(-c4c(C)ccc5cnn(C)c45)c(Cl)cc23)C[C@H]1C` [Compound 239, 1-((2R,5S)-4-(6-chloro-2-(((S)-1-(cyclopropylmeth-yl)pyrrolidin-2-yl)methoxy)-7-(1,6-dimethyl-1H-indazol-7-yl)-8-fluoroquinazolin-4-yl)-2,5-dimethylpiperazin-1-yl)prop-2-en-1-one] was “+++ (+++ indicates binding activity greater than 80%)”; that for `C=CC(=O)N1C[C@H](C)N(c2nc(C#CCN(C)C)nc3c(F)c(-c4c(C)ccc5[nH]nc(C6CC6)c45)c(Cl)cc23)C[C@H]1C` [Compound 240, 1-((2R,5S)-4-(6-chloro-7-(3-cyclopropyl-5-methyl-1H-indazol-4-yl)-2-(3-(dimethylamino)prop-1-ylnyl)-8-fluoroquinazolin-4-yl)-2,5-dimethylpiperazin-1-yl)prop-2-en-1-one] was “+ (+ indicates binding activity greater than 0% and up to 50%)”; that for `C=CC(=O)N1C[C@H](C)N(c2nc(OC[C@H]3CC(F)(F)CN3C)nc3c(F)c(-c4c(C)ccc5cnn(C)c45)c(Cl)cc23)C[C@H]1C` [Compound 241, 1-((2R,5S)-4-(6-chloro-2-(((R)-4,4-difluoro-1-methylpyrrolidin-2-yl)methoxy)-7-(1,6-dimethyl-1H-indazol-7-yl)-8-fluoroquinazolin-4-yl)-2,5-dimethylpiperazin-1-yl)prop-2-en-1-one] was “+ (+ indicates binding activity greater than 0% and up to 50%)”. The value for `C=CC(=O)N1C[C@H](C)N(c2nc(N3CC(C(N)=O)C3)nc3c(F)c(-c4c(C)ccc5cnn(C)c45)c(Cl)cc23)C[C@H]1C` [Compound 244, 1-(4-((2S,5R)-4-acryloyl-2,5-dimethylpiperazin-1-yl)-6-chloro-7-(1,6-dimethyl-1H-indazol-7-yl)-8-fluoroquinazolin-2-yl)azetidine-3-carboxamide] was “++ (++ indicates binding activity from 50 to 80%)”; that for `C=CC(=O)N1C[C@H](C)N(c2nc(OC[C@@H]3CCCN3C(C)C)nc3c(F)c(-c4c(C)ccc5[nH]nc(C)c45)c(Cl)cc23)C[C@H]1C` [Compound 247, 1-((2R,5S)-4-(6-chloro-7-(3,5-dimethyl-1H-indazol-4-yl)-8-fluoro-2-(((S)-1-isopropylpyrrolidin-2-yl)methoxy)quinazolin-4-yl)-2,5-dimethylpiperazin-1-yl)prop-2-en-1-one] was “++ (++ indicates binding activity from 50 to 80%)”. As for `C=CC(=O)N1C[C@H](C)N(c2nc(NC(C)=O)nc3c(F)c(-c4c(C)ccc5cnn(C)c45)c(Cl)cc23)C[C@H]1C` [Compound 256, N-(4-((2S,5R)-4-acryloyl-2,5-dimethylpiperazin-1-yl)-6-chloro-7-(1,6-dimethyl-1H-indazol-7-yl)-8-fluoroquinazolin-2-yl)acetamide], the Binding % entry is listed as “++ (++ indicates binding activity from 50 to 80%)”.

Consider `C=CC(=O)N1C[C@H](C)N(c2nc(N3CC(C(N)=O)C3)nc3c(F)c(-c4c(C)ccc5[nH]nc(C6CC6)c45)c(Cl)cc23)C[C@H]1C` [Compound 257, 1-(4-((2S,5R)-4-acryloyl-2,5-dimethylpiperazin-1-yl)-6-chloro-7-(3-cyclopropyl-5-methyl-1H-indazol-4-yl)-8-fluoroquinazolin-2-yl)azetidine-3-carboxamide], for which the Binding % entry is listed as “++ (++ indicates binding activity from 50 to 80%)”. Then `C=CC(=O)N1C[C@H](C)N(c2nc(C#CCOC)nc3c(F)c(-c4c(C)ccc5cnn(C)c45)c(Cl)cc23)C[C@H]1C` [Compound 258, 1-((2R,5S)-4-(6-chloro-7-(1,6-dimethyl-1H-indazol-7-yl)-8-fluoro-2-(3-methoxyprop-1-ynyl)quinazolin-4-yl)-2,5-dimethylpiperazin-1-yl)prop-2-en-1-one], with “+++ (+++ indicates binding activity greater than 80%)”. Then `C=CC(=O)N1C[C@H](C)N(c2nc(NC(C)=O)nc3c(F)c(-c4c(C)ccc5[nH]nc(C6CC6)c45)c(Cl)cc23)C[C@H]1C` [Compound 259, N-(4-((2S,5R)-4-acryloyl-2,5-dimethylpiperazin-1-yl)-6-chloro-7-(3-cyclopropyl-5-methyl-1H-indazol-4-yl)-8-fluoroquinazolin-2-yl)acetamide], with “++ (++ indicates binding activity from 50 to 80%)”; and `C=CC(=O)N1C[C@H](C)N(c2nc(NC(=O)CN(C)C)nc3c(F)c(-c4c(C)ccc5cnn(C)c45)c(Cl)cc23)C[C@H]1C` [Compound 260, N-(4-((2S,5R)-4-acryloyl-2,5-dimethylpiperazin-1-yl)-6-chloro-7-(1,6-dimethyl-1H-indazol-7-yl)-8-fluoroquinazolin-2-yl)-2-(dimethylamino)aceta-mide], with “+++ (+++ indicates binding activity greater than 80%)”.
